Here are results for eight molecules from patent US6214801A, “Imidazo[1,2-a]pyridine C-nucleosides as antiviral agents” (The Regents of the University of Michigan, priority 1999, dated 2001).

In one data set the test system is HSV-1. The data set can be described thus: HSV-1 ELISA assay. It counts as cell-based, herpes simplex virus type 1, KOS strain. The conditions noted are these: Human alphaherpesvirus 1; read-out: 50% Inhibitory Concentration IC50, Antiviral Activity, HSV-1 (ELISA assay). The method, then:
(§1) KB cells (available from the American Type Culture Collection (ATCC) 12301 Parklawn Drive, […], Md. 20852 (ATCC CCL 17)), an established human cell line derived from an epidermal oral carcinoma, were grown in minimal essential medium (MEM) (Sigma) with Hanks salts (MEM(H)) supplemented with 5% fetal calf serum. Human foreskin fibroblasts (HFF cells) (provided by the University of Michigan Hospital) and African green monkey kidney cells (BSC-1) (ATTC CCL 26) cells were grown in MEM with Earl salts (MEM(E)) supplemented with 10% fetal bovine serum. Cells were passaged according to conventional procedures and as described in Shipman, C., Jr. et al. (1976) Antimicrob. Agents Chemother. Vol. 9:120 and incorporated herein by reference. Briefly, cells were passaged at 1:2 to 1:10 dilutions according to conventional procedures by using 0.05% trypsin plus 0.02% EDTA in a HEPES buffered salt solution. HFF cells were passaged onlv at 1:2 dilutions.
(§2) A plaque purified isolate, Po, of the Towne strain of HCMV was used in all experiments and was a gift of Dr. Mark Stinski, University of Iowa. The KOS strain of HSV-1 was used and was provided by Dr. Sandra K. Weller, University of Connecticut. Stock preparations of HCMV and HSV-1 were prepared and titered as known to those of skill and the art and described in Turk, S. R. et al. (1987) Antimicrob. Agents Chemother. Vol. 31:544-550 and Shipman, C., Jr., et al. (1990) J. Virol. Methods Vol. 28:101-106, each incorporated herein by reference.
Briefly, high titer HSV-1 stocks were prepared as follows. Nearly confluent monolayer cultures of KB cells were grown in 32 oz. glass bottles containing MEM(E) buffered with 25 mM HEPES and supplemented with 5% fetal bovine serum and 0.127 giliter L-arginine (VGM, virus growth medium). The cultures were infected at a low input multiplicity to reduce the formation of defective virus. After cell cytopathology reached "three to four plus", the cells were harvested by vigorous shaking, and concentrated by centrifugation (800×g for 5 min.). The resulting virus pools were stored at -760C until retrieved for use in experiments.
HSV-1 was titered using monolayer cultures of BSC-1 cells. Cells were planted at 3×10^5 cells/well using 6-well cluster dishes. MEM(E) supplemented with 10% fetal bovine serum was employed as medium. After 22-24 h, cells were 90% confluent and were inoculated in triplicate using at least three ten-fold dilutions with 0.2 ml of the virus suspension to be assayed and incubated in a humidified 4% CO2 -[…] atmosphere for one hour to permit viral adsorption. Following virus adsorption, the cell sheet was overlayed with 5 ml of MEM(E) with 5% serum plus 0.5% methocel (4000 CPS) and incubated an additional two to three days. Cells were fixed and stained with 0.1% crystal violet in 20% methanol and macroscopic plaques enumerated.
(§3) HCMV plaque reduction experiments were performed with monolayer cultures of HFF cells by a procedure similar to that referenced above for titration of the viruses and described in Devivar, R. V. et al. (1994) J. Med. Chem. Vol. 37:2942-2949. Activity of compounds against HSV-1 was evaluated using an ELISA assay.
ELISA techniques according to standard procedures were also used to determine activity against HSV-1. Drug effects were calculated as a percentage of the reduction in virus titers in the presence of each drug concentration compared to the titer obtained in the absence of drug. Ganciclovir was used as a positive control in all experiments.
(In an ELISA, binding on a coated surface is turned into a signal by an enzyme label.)
In the case of `OC[C@H]1O[C@@H](c2c(Cl)c(Cl)cc3nc(Cl)cn23)[C@H](O)[C@@H]1O` [Compound 42, 2,6,7-Trichloro-5-(β-D-ribofuranosyl)imidazo[1,2-a]pyridine], the IC50 was > 100 µM.
On to `OC[C@H]1O[C@H](c2c(Cl)c(Cl)cc3nc(Cl)cn23)[C@H](O)[C@@H]1O` [Compound 43, 2,6,7-Trichloro-5-(α-D-ribofuranosyl)imidazo[1,2-a]pyridine], for which the IC50 is > 100 µM.
As for `OC[C@H]1O[C@@H](c2cccc3nccn23)[C@H](O)[C@@H]1O` [Compound 45, 5-(β-D-Ribofuranosyl)imidazo[1,2-a]pyridine], the IC50 was > 100 µM.
Still for that read-out and setting: the result for `O[C@@H]1[C@@H](c2c(Cl)nc3cc(Cl)c(Cl)cn23)OC[C@@H]1O` [Compound +28, 2,6,7-Trichloro-3-(β-L-erythrofuranosyl)imidazo[1,2-a]pyridine] reads > 100 µM; that for `O[C@@H]1[C@H](O)CO[C@H]1c1c(Cl)nc2cc(Cl)c(Cl)cn12` [Compound -28, 2,6,7-Trichloro-3-(β-D-erythrofuranosyl)imidazo[1,2-a]pyridine], > 100 µM.
On the same count and under the same terms, under `O[C@H]1[C@@H](O)CO[C@H]1c1c(Cl)nc2cc(Cl)c(Cl)cn12` [Compound -29, 2,6,7-dichloro-3-(α-L-erythrofuranosyl)imidazo[1,2-α]pyridine] stands > 100 µM.

The subject of another data set is HFF cells. The data set can be described thus: in vitro. It counts as cell-based, human.
Settings: not given
As to the method: as §1
(§4) Two different methods were used to evaluate cytotoxicity of the compounds. First, cytotoxicity produced in stationary HFF cells was determined by microscopical examination of cells not affected by the virus used in the plaque assay. Second the effect of compounds on KB cells during two population doubling times was determined by crystal violet staining and spectrophotometric quantitation of dye eluted from stained cells. This method has been utilized for the analysis of ganciclovir and zidovudine (See Prichard, M. N. et al. Antiviral Res. (1991) Vol. 35:1060-1065).
Consider `O[C@H]1[C@@H](O)CO[C@H]1c1c(Cl)nc2cc(Cl)c(Cl)cn12` [Compound -29], for which the “cytotoxicity (in words)” value is given as “very low cytotoxicity”.

System in the next data set: not listed separately
The data set can be described thus: in vitro. The format is cell-based, human. The settings on record: human, hff cells. The method, then:
as §1, §4
Turning to `OC[C@H]1O[C@@H](c2c(Cl)c(Cl)cc3nc(Cl)cn23)[C@H](O)[C@@H]1O` [Compound 42, 2,6,7-Trichloro-5-(β-D-ribofuranosyl)imidazo[1,2-a]pyridine], the CC50 is > 100 µM.
Turning to `OC[C@H]1O[C@H](c2c(Cl)c(Cl)cc3nc(Cl)cn23)[C@H](O)[C@@H]1O` [Compound 43, 2,6,7-Trichloro-5-(α-D-ribofuranosyl)imidazo[1,2-a]pyridine], the CC50 is > 100 µM.
As to `OC[C@H]1O[C@@H](c2cccc3nccn23)[C@H](O)[C@@H]1O` [Compound 45, 5-(β-D-Ribofuranosyl)imidazo[1,2-a]pyridine], the CC50 is > 100 µM.
For `O[C@@H]1[C@@H](c2c(Cl)nc3cc(Cl)c(Cl)cn23)OC[C@@H]1O` [Compound +28, 2,6,7-Trichloro-3-(β-L-erythrofuranosyl)imidazo[1,2-a]pyridine], the CC50 is > 100 µM.
As to `O[C@@H]1[C@H](O)CO[C@H]1c1c(Cl)nc2cc(Cl)c(Cl)cn12` [Compound -28, 2,6,7-Trichloro-3-(β-D-erythrofuranosyl)imidazo[1,2-a]pyridine], the CC50 is > 100 µM.
In the case of `O[C@H]1[C@@H](O)CO[C@H]1c1c(Cl)nc2cc(Cl)c(Cl)cn12` [Compound -29, 2,6,7-dichloro-3-(α-L-erythrofuranosyl)imidazo[1,2-α]pyridine], the CC50 is > 100 µM.
For `Nc1nc(O)c2ncn(COC(CO)CO)c2n1` [DHPG, ganciclovir, reference compound], the CC50 is > 100 µM.

System in another data set: not listed separately
Kind of data set: Growth cytotoxicity in KB cells (crystal violet staining). The format is cell-based. The conditions noted are these: human, two population doubling times, read-out: 50% Inhibitory Concentration IC50, Cytotoxicity, Growth (KB cells). The method, then:
as §1, §4
With `OC[C@H]1O[C@@H](c2c(Cl)c(Cl)cc3nc(Cl)cn23)[C@H](O)[C@@H]1O` [Compound 42, 2,6,7-Trichloro-5-(β-D-ribofuranosyl)imidazo[1,2-a]pyridine], the CC50 was > 100 µM.
`OC[C@H]1O[C@H](c2c(Cl)c(Cl)cc3nc(Cl)cn23)[C@H](O)[C@@H]1O` [Compound 43, 2,6,7-Trichloro-5-(α-D-ribofuranosyl)imidazo[1,2-a]pyridine]: the CC50 is > 100 µM.
On the same count and under the same terms, the result for `OC[C@H]1O[C@@H](c2cccc3nccn23)[C@H](O)[C@@H]1O` [Compound 45, 5-(β-D-Ribofuranosyl)imidazo[1,2-a]pyridine] reads > 100 µM.
Turning to `O[C@@H]1[C@@H](c2c(Cl)nc3cc(Cl)c(Cl)cn23)OC[C@@H]1O` [Compound +28, 2,6,7-Trichloro-3-(β-L-erythrofuranosyl)imidazo[1,2-a]pyridine], the CC50 is > 100 µM.
On to `O[C@@H]1[C@H](O)CO[C@H]1c1c(Cl)nc2cc(Cl)c(Cl)cn12` [Compound -28, 2,6,7-Trichloro-3-(β-D-erythrofuranosyl)imidazo[1,2-a]pyridine], for which the CC50 was > 100 µM.
On the same count and under the same terms, the result for `O[C@H]1[C@@H](O)CO[C@H]1c1c(Cl)nc2cc(Cl)c(Cl)cn12` [Compound -29, 2,6,7-dichloro-3-(α-L-erythrofuranosyl)imidazo[1,2-α]pyridine] reads > 100 µM.

Another data set has as its system HCMV. The data set can be described thus: HCMV plaque (focus) reduction assay in HFF cells. It counts as cell-based. The settings on record: Human betaherpesvirus 5; HFF cells, 7 to 10 days; read-out: 50% Inhibitory Concentration IC50, Antiviral Activity, HCMV (plaque assay in HFF cells). As to the method: as §1, §2
Stock HCMV was prepared by infecting HFF cells at a multiplicity of infection (m.o.i.) of less that 0.01 plaque-forming units (p.f.u.) per cell. Cell growth medium was changed every four days until cytopathology was evident in all cells (approximately 21 days). Supernatant fluids were retained as the virus stock. Four days later, the remaining cells were disrupted by three cycles of freeze-thawing and the cell plus medium held as an additional source of virus. Storage was in liquid nitrogen.
HCMV was titered in 24-well cluster dishes which were plated to contain 5×10^4 HFF cells/well, grown as described above. When the cells were 70 to 80% confluent, 0.2 ml of the virus suspension was added per well and adsorbed as described above. At least three ten-fold dilutions of each preparation were used. Following virus adsorption, the cell sheets were overlayed with 0.5% methocel (4000 CPS) in maintenance medium [MEM(E) with 1.1 g/liter NaHCO3, 100 units/ml penicillin G, 100 μg/ml streptomycin, and 5% fetal bovine serum]. The cultures were incubated in a humidified atmosphere of 4% CO2 -96% air. Viral plaques were visible 5 to 7 days after infection using at least 10-fold magnification. Cells were fixed and stained by a 10-minute exposure to a 0.1% solution of crystal violet in 20% methanol 7 to 12 days after infection. Microscopic foci were enumerated at 20-fold magnification using a Nikon Profile Projector.
as §3
The effect of compounds of the replication of HCMV was measured using a plaque (focus) reduction assay. For the former, HFF cells in 24-well culture dishes were infected with approximately 50 p.f.u. of HCMV per well using the procedures detailed above. Compounds dissolved in growth medium were added in four to six selected concentrations to duplicate wells following virus adsorption. Following incubation at 37 °C for 7 to 10 days, cell sheets were fixed, stained and microscopic plaques were enumerated as described above. Drug effects were calculated as a percentage of reduction in number of plaques in the presence of each drug concentration compared to the number observed in the absence of drug. […]
Consider `OC[C@H]1O[C@@H](c2c(Cl)c(Cl)cc3nc(Cl)cn23)[C@H](O)[C@@H]1O` [Compound 42, 2,6,7-Trichloro-5-(β-D-ribofuranosyl)imidazo[1,2-a]pyridine], for which the IC50 was > 100 µM.
For `OC[C@H]1O[C@H](c2c(Cl)c(Cl)cc3nc(Cl)cn23)[C@H](O)[C@@H]1O` [Compound 43, 2,6,7-Trichloro-5-(α-D-ribofuranosyl)imidazo[1,2-a]pyridine], the IC50 is > 100 µM.
For `OC[C@H]1O[C@@H](c2cccc3nccn23)[C@H](O)[C@@H]1O` [Compound 45, 5-(β-D-Ribofuranosyl)imidazo[1,2-a]pyridine], the IC50 is > 100 µM.
`O[C@@H]1[C@@H](c2c(Cl)nc3cc(Cl)c(Cl)cn23)OC[C@@H]1O` [Compound +28, 2,6,7-Trichloro-3-(β-L-erythrofuranosyl)imidazo[1,2-a]pyridine]: the IC50 is > 100 µM.
Consider `O[C@@H]1[C@H](O)CO[C@H]1c1c(Cl)nc2cc(Cl)c(Cl)cn12` [Compound -28, 2,6,7-Trichloro-3-(β-D-erythrofuranosyl)imidazo[1,2-a]pyridine], for which the IC50 is > 100 µM.
In the case of `O[C@H]1[C@@H](O)CO[C@H]1c1c(Cl)nc2cc(Cl)c(Cl)cn12` [Compound -29, 2,6,7-dichloro-3-(α-L-erythrofuranosyl)imidazo[1,2-α]pyridine], the IC50 was found to be 17 µM.
As for `Nc1nc(O)c2ncn(COC(CO)CO)c2n1` [DHPG, ganciclovir, reference compound], the IC50 is 7.4 µM.

Still in this data set, the particulars now being: Table 5.
In the case of `O[C@H]1[C@@H](O)CO[C@H]1c1c(Cl)nc2cc(Cl)c(Cl)cn12` [Compound -29], the “antiviral activity (in words)” value is listed as “excellent antiviral activity”.
